From PubChem BioAssay (NCI)
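Five concentrations, 48 hours, 96-well plates. TGI denotes the concentration required for complete inhibition of growth.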

Key:
Assay in all cases: NCI anticancer screen, dose series, 48 h
SF-539 CNS = test system: SF-539 CNS
SF-268 CNS = test system: SF-268 CNS
TK-10 renal = test system: TK-10 renal
HL-60(TB) leukemia = test system: HL-60(TB) leukemia
MALME-3M melanoma = test system: MALME-3M melanoma
COLO 205 colon = test system: COLO 205 colon
T-47D breast = test system: T-47D breast
MDA-N = test system: MDA-N
SNB-19 CNS = test system: SNB-19 CNS
UACC-62 melanoma = test system: UACC-62 melanoma
CCRF-CEM leukemia = test system: CCRF-CEM leukemia
HCT-116 colon = test system: HCT-116 colon
UO-31 renal = test system: UO-31 renal
OVCAR-4 ovarian = test system: OVCAR-4 ovarian
CAKI-1 renal = test system: CAKI-1 renal
SK-MEL-28 melanoma = test system: SK-MEL-28 melanoma
MDA-MB-435 = test system: MDA-MB-435
NCI-H23 lung = test system: NCI-H23 lung
LOX IMVI melanoma = test system: LOX IMVI melanoma
SK-MEL-5 melanoma = test system: SK-MEL-5 melanoma
PC-3 prostate = test system: PC-3 prostate
HCT-15 colon = test system: HCT-15 colon
RPMI-8226 leukemia = test system: RPMI-8226 leukemia
SNB-75 CNS = test system: SNB-75 CNS
IGROV1 ovarian = test system: IGROV1 ovarian
U251 CNS = test system: U251 CNS
OVCAR-5 ovarian = test system: OVCAR-5 ovarian
MOLT-4 leukemia = test system: MOLT-4 leukemia
BT-549 breast = test system: BT-549 breast
RXF 393 renal = test system: RXF 393 renal
UACC-257 melanoma = test system: UACC-257 melanoma
K-562 leukemia = test system: K-562 leukemia
NCI-H226 lung = test system: NCI-H226 lung
KM12 colon = test system: KM12 colon
HT29 colon = test system: HT29 colon
HOP-62 NSCLC = test system: HOP-62 NSCLC
HS 578T breast = test system: HS 578T breast
NCI/ADR-RES ovarian = test system: NCI/ADR-RES ovarian
DU-145 prostate = test system: DU-145 prostate
SW-620 colon = test system: SW-620 colon
SF-295 CNS = test system: SF-295 CNS
MDA-MB-231 breast = test system: MDA-MB-231 breast
OVCAR-3 ovarian = test system: OVCAR-3 ovarian
786-0 renal = test system: 786-0 renal
A549 NSCLC = test system: A549 NSCLC
HOP-92 NSCLC = test system: HOP-92 NSCLC
HCC-2998 colon = test system: HCC-2998 colon
SK-OV-3 ovarian = test system: SK-OV-3 ovarian
OVCAR-8 ovarian = test system: OVCAR-8 ovarian
M14 melanoma = test system: M14 melanoma
A498 renal = test system: A498 renal
NCI-H460 lung = test system: NCI-H460 lung
MCF7 breast = test system: MCF7 breast
SK-MEL-2 melanoma = test system: SK-MEL-2 melanoma
EKVX NSCLC = test system: EKVX NSCLC
NCI-H522 lung = test system: NCI-H522 lung
SN12C renal = test system: SN12C renal
ACHN renal = test system: ACHN renal

Measured: TGI

CCOC(=O)c1c(O)[nH]c(=O)c(CC)c1C
> 100 µM: all assays above
